Test results: patent publication US6727245B2, “Heterobicyclic derivatives” (Fujisawa Pharmaceutical Co., Ltd., priority 1994, dated 2004)
pIC50: −log10 of the molar value.

What was measured:
[1] = biological target: U937 Phosphodiesterase IV (PDE IV); assay: Inhibition of U937 Phosphodiesterase IV (PDE IV); type: biochemical; details: PDE IV enzyme preparation from U937 cell homogenate; [3H]-cAMP substrate; CI-930 (PDE III inhibitor) final 10 μM; 30° C.
Protocol: (a) Inhibition of U937 Phosphodiesterase IV (PDE IV)
Harvested U937 was freezed in −80° C. and throwed to destroy the cell body. The pellet of destroyed cell was washed by Phosphate-buffered saline (PBS).
The washed cell pellet was homogenized with Dounce homogenizer (20 strokes) in homogenizing buffer (0.5% deoxycholate [DOC], 5 mM 2-mercaptoethanol, 1 μM leupeptin, 100 μM PMSF, 20 μM p-tosyl-L-lysine-chloromethyl ketone [TLCK] in PBS). The homogenate was centrifuged at 100,000 g×90 minutes (4° C.) and the supernatant containing PDE IV activity was dialyzed against dialysis buffer, which was the same component as homogenizing buffer without DOC. The dialyzed supernatant of homogenate was stored in freezer (−80° C.) as PDE IV enzyme preparation.
Enzyme preparation was diluted in assay buffer (10 mM Tris-HCl, 5 mM MgCl, 1 mM 2-Mercaptoethanol [pH 8.0]). In advance the rate of dilution was choosen every new lot of homogenizing preparation. […]
The reaction tube was preincubated in a water bath (30° C.) for 5 minutes, then 100 μl [^3H]-cAMP (37.0 MBq/ml [^3H]-cAMP: 4 μM cold cAMP=1:800) was added thereto. […] The mixture was centrifuged at 1000 rpm×5 minutes, and then 500 μl of the supernatant was added to 10 ml scintillation fluid in appropriate vial, vortexed, and counted for [^3H].
The inhibitory activity was calculated according to the following equation: [formula]

[2] = test system: TNF-α Production in Human Mononuclear Cells; assay: Inhibition on TNF-α Production in Human Mononuclear Cells; type: cell-based; details: MNC from healthy volunteers, 1 μg/ml LPS (E. coli), 37° C. for 16 hours, TNF-α in supernatant by ELISA
Protocol: (b) Inhibition on TNF-α Production in Human Mononuclear Cells
Blood was drawn from healthy volunteers with heparin. The mononuclear cell (MNC) fraction was obtained by gradient centrifugation (1800 rpm, 15 minutes), diluted with the same volume of RPMI-1640 culture medium, over Ficoll-Paque (Pharmacia LKB Biotechnology). MNC were washed twice with RPMI-1640. Then, MNC were resuspended in RPMI-1640 culture medium supplemented with 2 mM L-glutamine and 1% fetal bovine serum. MNC were incubated at 37° C. for 16 hours in 96-well micro culture plate at a concentration of […] with or without 1 μg/ml lipopolysaccharide (LPS) (from E. coli) and various amounts of test compound. At the end of incubation, the supernatant was obtained and its TNF-α active was measured by enzyme-linked immunosorbent assay (ELISA). ELISA was performed with TNF-α ELISA kit (Otsuka Pharmaceutical Co., Ltd.).

melting point	pIC50 [1]	SMILES	pIC50 [2]
189 to 198 °C (dec.)	–	O=C(/C=C(\C(=O)O)c1ccccc1)Nc1cccc(-c2cccc(-n3c(=O)c(Cc4cccnc4)nc4cccnc43)c2)c1 [Example 82(2), 4-[3-[3-[(Z)-3-Carboxy-3-phenylacryloylamino]phenyl]phenyl]-2-(3-pyridylmethyl)-3-oxo-3,4-dihydropyrido[2,3-b]pyrazine]	–
138 to 144 °C	–	O=C(Nc1cccc(-c2cccc(-n3c(=O)c(Cc4cccnc4)nc4cccnc43)c2)c1)C(F)(F)F [Example 83, 4-[3-(3-trifluoroacetylaminophenyl)phenyl]-2-(3-pyridylmethyl)-3-oxo-3,4-dihydropyrido[2,3-b]pyrazine]	–
90 °C (dec.)	–	O=c1c(Cc2ccccc2)nc2cccnc2n1-c1cccc(-n2c(Br)ccc2Br)c1 [Example 113, 2-Benzyl-4-[3-(2,5-dibromopyrrol-1-yl)phenyl]-3-oxo-3,4-dihydropyrido[2,3-b]pyrazine]	–
–	7.51	O=C(Nc1cccc(-n2c(=O)c(Cc3ccccc3)nc3cccnc32)c1)Nc1cccc2ccccc12 [Test compound (a), 4-[3-[3-(1-Naphthyl)ureido]phenyl]-2-benzyl-3-oxo-3,4-dihydropyrido[2,3-b]pyrazine]	7.25
